Experimental data from ChEMBL document CHEMBL4507319 (2021).

Columns and labels:
[1] = molecular target: Myosin light chain kinase 2, skeletal/cardiac muscle (Homo sapiens) (UniProt Q9H1R3); assay: MYLK2(h) Eurofins kinase panel; conditions: Compound concentration 1.0 uM
[2] = molecular target: Serine/threonine-protein kinase 26 (Homo sapiens) (UniProt Q9P289); assay: MST4(h) Eurofins kinase panel; conditions: Compound concentration 1.0 uM
[3] = molecular target: Serine-protein kinase ATM (Homo sapiens) (UniProt Q13315); assay: ATM(h) Eurofins kinase panel; conditions: Compound concentration 1.0 uM
[4] = molecular target: Protein kinase C alpha type (Homo sapiens) (UniProt P17252); assay: PKCalpha (h) Eurofins kinase panel; conditions: Compound concentration 1.0 uM
[5] = molecular target: RAC-alpha serine/threonine-protein kinase (Homo sapiens) (UniProt P31749); assay: PKBalpha (h) Eurofins kinase panel; conditions: Compound concentration 1.0 uM
[6] = molecular target: T1, Serine/threonine-protein kinase Nek9 (Homo sapiens) (UniProt Q8TD19); assay: NEK9(h) Eurofins kinase panel; conditions: Compound concentration 1.0 uM
T1 sequence (whole entry): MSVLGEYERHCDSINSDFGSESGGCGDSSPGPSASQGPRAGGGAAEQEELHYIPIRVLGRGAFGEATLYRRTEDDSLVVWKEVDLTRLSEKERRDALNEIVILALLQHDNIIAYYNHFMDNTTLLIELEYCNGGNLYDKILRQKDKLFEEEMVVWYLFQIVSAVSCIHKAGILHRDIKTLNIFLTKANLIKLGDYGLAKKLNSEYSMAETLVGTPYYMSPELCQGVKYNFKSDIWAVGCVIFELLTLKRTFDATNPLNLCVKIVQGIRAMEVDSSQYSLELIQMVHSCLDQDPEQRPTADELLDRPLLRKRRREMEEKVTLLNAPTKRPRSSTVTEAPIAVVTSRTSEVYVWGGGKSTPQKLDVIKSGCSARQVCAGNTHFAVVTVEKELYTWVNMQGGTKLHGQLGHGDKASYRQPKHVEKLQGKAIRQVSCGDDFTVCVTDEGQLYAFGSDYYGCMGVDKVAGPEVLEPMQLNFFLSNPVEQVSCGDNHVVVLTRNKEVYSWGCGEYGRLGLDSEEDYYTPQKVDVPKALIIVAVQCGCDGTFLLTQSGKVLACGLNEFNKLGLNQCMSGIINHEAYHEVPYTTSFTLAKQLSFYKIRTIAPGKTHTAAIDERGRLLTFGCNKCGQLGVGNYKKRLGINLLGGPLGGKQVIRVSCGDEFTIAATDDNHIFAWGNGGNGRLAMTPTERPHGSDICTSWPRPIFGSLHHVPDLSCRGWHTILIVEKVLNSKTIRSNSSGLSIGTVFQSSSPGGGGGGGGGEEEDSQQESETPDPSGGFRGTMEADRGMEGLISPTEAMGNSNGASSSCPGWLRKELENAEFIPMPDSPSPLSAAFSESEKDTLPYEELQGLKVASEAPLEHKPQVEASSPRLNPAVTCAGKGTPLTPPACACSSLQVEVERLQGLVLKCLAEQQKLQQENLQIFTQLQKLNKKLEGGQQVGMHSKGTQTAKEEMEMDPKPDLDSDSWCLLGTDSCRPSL

[7] = molecular target: T2, Serine/threonine-protein kinase D2 (Homo sapiens) (UniProt Q9BZL6); assay: PKD2(h) Eurofins kinase panel; conditions: Compound concentration 1.0 uM
T2 sequence (whole entry): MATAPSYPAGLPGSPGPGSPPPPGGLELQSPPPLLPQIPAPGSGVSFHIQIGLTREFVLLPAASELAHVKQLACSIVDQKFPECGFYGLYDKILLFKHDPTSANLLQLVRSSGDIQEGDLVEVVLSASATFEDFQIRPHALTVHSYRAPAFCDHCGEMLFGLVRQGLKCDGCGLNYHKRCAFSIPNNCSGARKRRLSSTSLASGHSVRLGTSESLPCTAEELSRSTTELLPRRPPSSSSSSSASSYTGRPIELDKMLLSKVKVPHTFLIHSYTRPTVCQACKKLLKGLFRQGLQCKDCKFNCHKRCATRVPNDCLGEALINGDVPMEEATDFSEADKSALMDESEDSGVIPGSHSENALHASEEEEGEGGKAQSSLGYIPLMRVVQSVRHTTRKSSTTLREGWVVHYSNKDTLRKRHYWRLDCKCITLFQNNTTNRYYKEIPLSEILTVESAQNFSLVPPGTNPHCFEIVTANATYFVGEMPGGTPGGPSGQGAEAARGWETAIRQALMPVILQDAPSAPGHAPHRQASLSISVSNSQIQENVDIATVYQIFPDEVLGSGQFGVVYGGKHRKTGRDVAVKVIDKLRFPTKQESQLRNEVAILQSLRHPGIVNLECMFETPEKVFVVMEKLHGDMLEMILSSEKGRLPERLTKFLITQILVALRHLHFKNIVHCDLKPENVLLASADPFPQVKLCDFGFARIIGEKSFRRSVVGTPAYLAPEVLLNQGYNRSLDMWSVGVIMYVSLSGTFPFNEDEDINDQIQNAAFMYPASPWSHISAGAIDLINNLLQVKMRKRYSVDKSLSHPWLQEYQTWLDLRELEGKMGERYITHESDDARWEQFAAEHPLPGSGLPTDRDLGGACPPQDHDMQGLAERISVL

[8] = molecular target: Tyrosine-protein kinase HCK (Homo sapiens) (UniProt P08631); assay: Hck(h) activated Eurofins kinase panel; conditions: Compound concentration 1.0 uM
IMR-32 = assay: IMR-32 cell line Proliferation assay; type: functional, Homo sapiens; conditions: time 6 day
[9] = molecular target: Mitogen-activated protein kinase 3 (Homo sapiens) (UniProt P27361); assay: MAPK1(h) Eurofins kinase panel; conditions: Compound concentration 1.0 uM
[10] = molecular target: T3, Tyrosine-protein kinase TXK (Homo sapiens) (UniProt P42681); assay: Txk(h) Eurofins kinase panel; conditions: Compound concentration 1.0 uM
T3 sequence (whole entry): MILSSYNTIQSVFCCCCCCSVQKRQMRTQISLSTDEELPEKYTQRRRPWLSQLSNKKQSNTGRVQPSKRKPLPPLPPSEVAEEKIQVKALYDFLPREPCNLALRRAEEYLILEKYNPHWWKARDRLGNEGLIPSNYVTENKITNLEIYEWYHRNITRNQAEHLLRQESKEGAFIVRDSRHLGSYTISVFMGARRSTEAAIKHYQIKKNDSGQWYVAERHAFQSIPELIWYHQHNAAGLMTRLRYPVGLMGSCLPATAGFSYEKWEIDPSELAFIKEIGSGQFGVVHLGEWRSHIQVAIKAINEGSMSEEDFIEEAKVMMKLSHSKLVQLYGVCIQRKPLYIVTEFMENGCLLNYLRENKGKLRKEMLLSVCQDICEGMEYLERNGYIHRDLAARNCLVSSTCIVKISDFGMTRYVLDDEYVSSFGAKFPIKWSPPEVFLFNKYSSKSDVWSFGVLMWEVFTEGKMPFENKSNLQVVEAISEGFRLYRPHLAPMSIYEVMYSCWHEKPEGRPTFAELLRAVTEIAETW

[11] = molecular target: Ribosomal protein S6 kinase alpha-1 (Homo sapiens, UniProt Q15418); conditions: Compound concentration 1.0 uM
[12] = molecular target: Mitogen-activated protein kinase kinase kinase 9 (Homo sapiens) (UniProt P80192); assay: MLK1(h) Eurofins kinase panel; conditions: Compound concentration 1.0 uM
Raji = assay: RAJI cell line Proliferation assay; type: functional, Homo sapiens; conditions: time 3 day
[13] = molecular target: Testis-specific serine/threonine-protein kinase 4 (Homo sapiens) (UniProt Q6SA08); assay: TSSK4(h) Eurofins kinase panel; conditions: Compound concentration 1.0 uM
Testis-specific serine/threonine-protein kinase 4 (Homo sapiens), sequence (Q6SA08 whole entry): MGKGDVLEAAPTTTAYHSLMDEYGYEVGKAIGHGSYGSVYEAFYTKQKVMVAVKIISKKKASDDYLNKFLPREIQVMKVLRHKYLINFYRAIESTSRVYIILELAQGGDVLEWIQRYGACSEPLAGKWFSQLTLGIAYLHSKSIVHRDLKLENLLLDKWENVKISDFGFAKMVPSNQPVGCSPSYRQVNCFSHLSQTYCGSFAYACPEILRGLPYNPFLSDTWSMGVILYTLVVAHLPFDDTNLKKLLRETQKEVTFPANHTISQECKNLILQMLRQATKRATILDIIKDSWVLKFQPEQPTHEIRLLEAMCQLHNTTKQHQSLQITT

Tyrosine-protein kinase HCK (Homo sapiens), sequence (P08631 2-526 limits assumed): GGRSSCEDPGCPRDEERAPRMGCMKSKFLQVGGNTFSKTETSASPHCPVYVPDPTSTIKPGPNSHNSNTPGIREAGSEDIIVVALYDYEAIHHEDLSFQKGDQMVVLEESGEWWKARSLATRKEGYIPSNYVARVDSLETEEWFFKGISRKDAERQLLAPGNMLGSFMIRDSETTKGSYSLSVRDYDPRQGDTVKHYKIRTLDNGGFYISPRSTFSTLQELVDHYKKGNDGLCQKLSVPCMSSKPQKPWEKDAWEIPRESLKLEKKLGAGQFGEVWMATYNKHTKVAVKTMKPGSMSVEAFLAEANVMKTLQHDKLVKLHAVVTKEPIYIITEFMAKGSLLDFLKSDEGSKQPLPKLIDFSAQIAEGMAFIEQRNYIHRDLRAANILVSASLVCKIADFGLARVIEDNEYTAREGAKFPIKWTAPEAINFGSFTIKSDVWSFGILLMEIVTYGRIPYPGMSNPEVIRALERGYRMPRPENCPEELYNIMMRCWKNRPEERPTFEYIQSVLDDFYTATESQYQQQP
Serine-protein kinase ATM (Homo sapiens), sequence (Q13315 whole entry): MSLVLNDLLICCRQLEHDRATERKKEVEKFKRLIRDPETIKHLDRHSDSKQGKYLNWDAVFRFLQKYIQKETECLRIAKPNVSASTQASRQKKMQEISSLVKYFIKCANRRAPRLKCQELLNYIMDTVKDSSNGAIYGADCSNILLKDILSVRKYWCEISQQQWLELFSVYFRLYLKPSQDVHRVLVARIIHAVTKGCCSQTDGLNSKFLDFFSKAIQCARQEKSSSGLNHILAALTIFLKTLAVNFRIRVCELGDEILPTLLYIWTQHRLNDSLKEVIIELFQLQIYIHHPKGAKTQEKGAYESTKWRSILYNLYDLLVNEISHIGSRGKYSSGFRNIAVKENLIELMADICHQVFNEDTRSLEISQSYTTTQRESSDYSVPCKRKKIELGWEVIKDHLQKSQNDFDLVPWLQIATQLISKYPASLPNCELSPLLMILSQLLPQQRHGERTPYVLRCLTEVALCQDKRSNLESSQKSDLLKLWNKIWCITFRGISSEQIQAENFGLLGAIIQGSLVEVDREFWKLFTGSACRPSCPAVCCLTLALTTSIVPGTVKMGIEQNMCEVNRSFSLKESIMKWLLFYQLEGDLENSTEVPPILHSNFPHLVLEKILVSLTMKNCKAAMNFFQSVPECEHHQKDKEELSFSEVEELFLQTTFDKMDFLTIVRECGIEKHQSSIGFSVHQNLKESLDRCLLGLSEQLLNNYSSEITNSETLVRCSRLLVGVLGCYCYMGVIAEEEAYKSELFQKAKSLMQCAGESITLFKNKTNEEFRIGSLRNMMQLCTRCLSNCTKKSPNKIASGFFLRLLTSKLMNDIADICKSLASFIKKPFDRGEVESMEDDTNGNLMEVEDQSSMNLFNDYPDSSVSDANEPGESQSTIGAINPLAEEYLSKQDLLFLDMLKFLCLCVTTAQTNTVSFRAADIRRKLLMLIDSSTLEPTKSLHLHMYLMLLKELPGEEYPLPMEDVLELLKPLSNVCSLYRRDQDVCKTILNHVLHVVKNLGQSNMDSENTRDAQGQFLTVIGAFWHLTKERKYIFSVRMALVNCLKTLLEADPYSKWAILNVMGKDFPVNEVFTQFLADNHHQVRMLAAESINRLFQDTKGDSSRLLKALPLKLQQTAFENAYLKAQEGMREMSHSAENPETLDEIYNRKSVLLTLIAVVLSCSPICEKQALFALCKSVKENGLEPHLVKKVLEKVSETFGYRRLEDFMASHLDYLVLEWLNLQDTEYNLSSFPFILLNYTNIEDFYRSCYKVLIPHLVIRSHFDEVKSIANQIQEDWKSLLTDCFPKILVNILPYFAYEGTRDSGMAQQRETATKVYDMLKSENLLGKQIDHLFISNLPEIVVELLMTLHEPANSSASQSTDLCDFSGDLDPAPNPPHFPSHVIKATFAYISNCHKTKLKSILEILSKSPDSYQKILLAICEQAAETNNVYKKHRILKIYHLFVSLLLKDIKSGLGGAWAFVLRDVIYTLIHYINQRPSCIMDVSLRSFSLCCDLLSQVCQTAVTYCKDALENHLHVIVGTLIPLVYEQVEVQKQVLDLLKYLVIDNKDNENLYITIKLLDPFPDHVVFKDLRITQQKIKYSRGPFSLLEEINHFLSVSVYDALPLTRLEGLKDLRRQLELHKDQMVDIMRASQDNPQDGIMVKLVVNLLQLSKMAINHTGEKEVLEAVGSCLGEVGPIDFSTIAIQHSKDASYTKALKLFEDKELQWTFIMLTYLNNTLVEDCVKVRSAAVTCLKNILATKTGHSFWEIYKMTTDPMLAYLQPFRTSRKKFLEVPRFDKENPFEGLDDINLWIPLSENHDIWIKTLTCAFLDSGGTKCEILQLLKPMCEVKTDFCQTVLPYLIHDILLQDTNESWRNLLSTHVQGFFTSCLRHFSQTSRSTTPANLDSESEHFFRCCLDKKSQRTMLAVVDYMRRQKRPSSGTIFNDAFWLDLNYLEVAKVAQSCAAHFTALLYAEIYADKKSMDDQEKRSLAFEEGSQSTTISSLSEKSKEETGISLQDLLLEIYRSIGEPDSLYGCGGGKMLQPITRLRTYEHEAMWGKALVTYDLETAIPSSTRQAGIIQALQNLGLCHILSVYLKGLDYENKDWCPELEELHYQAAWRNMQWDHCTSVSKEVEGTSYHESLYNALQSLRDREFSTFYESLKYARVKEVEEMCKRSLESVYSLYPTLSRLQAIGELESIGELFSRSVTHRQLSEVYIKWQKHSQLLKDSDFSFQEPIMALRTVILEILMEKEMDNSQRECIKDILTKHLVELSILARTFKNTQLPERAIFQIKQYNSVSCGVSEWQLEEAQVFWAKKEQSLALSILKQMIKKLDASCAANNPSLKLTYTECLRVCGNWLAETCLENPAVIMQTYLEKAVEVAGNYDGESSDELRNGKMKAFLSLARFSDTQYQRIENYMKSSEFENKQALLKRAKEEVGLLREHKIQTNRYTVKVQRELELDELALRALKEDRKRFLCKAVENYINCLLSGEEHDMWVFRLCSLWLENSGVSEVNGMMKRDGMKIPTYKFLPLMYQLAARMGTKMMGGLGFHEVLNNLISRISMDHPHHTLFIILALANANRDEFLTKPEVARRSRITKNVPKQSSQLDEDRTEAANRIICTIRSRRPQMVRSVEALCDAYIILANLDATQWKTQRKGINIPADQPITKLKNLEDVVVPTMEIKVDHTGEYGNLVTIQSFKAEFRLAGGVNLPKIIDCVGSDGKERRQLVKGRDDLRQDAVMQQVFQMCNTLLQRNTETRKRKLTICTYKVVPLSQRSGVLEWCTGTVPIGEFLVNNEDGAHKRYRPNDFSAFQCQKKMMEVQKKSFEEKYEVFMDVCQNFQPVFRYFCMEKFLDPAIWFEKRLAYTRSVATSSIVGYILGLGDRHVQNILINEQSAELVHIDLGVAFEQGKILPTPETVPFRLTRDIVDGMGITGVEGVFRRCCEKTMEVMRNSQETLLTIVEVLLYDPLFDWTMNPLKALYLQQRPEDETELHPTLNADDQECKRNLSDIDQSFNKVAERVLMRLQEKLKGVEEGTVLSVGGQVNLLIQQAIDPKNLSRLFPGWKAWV
Ribosomal protein S6 kinase alpha-1, sequence (Q15418 whole entry): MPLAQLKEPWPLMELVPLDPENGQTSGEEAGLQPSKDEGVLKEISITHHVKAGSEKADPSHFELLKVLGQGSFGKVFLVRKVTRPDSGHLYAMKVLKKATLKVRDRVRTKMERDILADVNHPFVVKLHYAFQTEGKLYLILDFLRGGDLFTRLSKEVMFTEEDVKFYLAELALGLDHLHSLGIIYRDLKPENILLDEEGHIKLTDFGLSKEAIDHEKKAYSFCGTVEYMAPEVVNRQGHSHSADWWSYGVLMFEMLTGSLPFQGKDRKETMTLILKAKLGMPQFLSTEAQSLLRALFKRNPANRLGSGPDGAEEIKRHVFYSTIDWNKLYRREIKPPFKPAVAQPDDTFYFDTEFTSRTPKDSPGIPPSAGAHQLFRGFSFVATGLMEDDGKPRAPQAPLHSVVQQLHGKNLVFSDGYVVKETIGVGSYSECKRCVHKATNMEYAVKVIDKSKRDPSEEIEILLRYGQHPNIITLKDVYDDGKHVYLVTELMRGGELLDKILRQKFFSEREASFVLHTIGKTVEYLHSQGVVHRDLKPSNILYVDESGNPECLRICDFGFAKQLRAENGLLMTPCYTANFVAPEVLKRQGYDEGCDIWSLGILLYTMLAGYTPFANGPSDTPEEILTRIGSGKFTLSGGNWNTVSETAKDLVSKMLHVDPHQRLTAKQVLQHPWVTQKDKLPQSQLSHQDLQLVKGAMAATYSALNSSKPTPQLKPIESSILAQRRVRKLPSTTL
Serine/threonine-protein kinase 26 (Homo sapiens), sequence (Q9P289 2-416 limits assumed): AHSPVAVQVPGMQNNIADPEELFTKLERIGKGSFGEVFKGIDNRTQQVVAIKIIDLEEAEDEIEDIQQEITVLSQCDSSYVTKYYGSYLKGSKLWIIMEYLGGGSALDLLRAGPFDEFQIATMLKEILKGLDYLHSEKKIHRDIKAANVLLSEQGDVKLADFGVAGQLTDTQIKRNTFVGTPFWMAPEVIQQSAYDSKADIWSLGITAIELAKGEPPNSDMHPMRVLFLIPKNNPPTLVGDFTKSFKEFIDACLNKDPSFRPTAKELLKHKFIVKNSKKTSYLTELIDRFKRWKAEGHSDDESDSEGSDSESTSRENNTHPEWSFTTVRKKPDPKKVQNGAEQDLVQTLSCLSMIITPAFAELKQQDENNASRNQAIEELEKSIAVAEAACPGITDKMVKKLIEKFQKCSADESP

CCc1ccccc1C(=O)Nc1n[nH]c2c(C)c(F)c(C3C(C#N)=C(C)N(C)C(C)=C3C#N)cc12 [BAY-3827]
% residual kinase activity [1]: 89% | % residual kinase activity [2]: 84% | % residual kinase activity [3]: 99% | % residual kinase activity [4]: 44% | % residual kinase activity [5]: 91% | % residual kinase activity [6]: 47% | % residual kinase activity [7]: 98% | % residual kinase activity [8]: 109% | Cell Proliferation IC50 (IMR-32): >11.5 µM | % residual kinase activity [9]: 95% | % residual kinase activity [10]: 111% | % residual kinase activity [11]: 7% | % residual kinase activity [12]: 93% | Cell Proliferation IC50 (Raji): >33 µM | % residual kinase activity [13]: 103%
